Test results from article PMC9030138, “The Facile Preparation of PBA-GO-CuO-Modified Electrochemical Biosensor Used for the Measurement of α-Amylase Inhibitors’ Activity” (Molecules, 2022).

Target: T1, α-amylase (Sus scrofa, UniProt P00690)
T1 construct: gene AMY2; from porcine pancreas, type VI-B
T1 sequence (P00690 16-511): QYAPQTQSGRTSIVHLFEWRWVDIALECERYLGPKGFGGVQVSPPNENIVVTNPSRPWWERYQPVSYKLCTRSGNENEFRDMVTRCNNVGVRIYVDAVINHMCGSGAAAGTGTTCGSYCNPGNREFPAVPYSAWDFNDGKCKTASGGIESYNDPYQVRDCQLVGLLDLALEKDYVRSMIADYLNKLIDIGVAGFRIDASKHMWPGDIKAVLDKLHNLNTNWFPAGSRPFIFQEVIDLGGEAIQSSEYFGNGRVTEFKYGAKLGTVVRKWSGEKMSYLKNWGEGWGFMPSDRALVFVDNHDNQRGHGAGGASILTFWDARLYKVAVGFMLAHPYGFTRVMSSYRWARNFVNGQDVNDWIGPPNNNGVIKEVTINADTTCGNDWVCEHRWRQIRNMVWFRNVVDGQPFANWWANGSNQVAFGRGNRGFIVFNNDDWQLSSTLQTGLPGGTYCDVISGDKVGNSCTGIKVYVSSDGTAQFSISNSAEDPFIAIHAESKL
Assay: electrochemical glucose sensor (PBA-GO-CuO electrode) assay of starch hydrolysis; checked by iodine colorimetric assay
Assay type: biochemical

O=C(O)c1cc(O)c2c(c1)C(=O)c1cccc(O[C@@H]3O[C@H](CO)[C@@H](O)[C@H](O)[C@H]3O)c1C2=O [Rhein-8-b-D-glucopyranoside] gave an IC50 of 39.1 µM.
